Where a SMILES comes first, the peptide text is derived from it. Bridges are numbered along the chain shown (N, C = ends). Where no end group is shown, it is not given here.

Assay [1] deals with T1, rat PAC1 receptor (Rattus norvegicus, UniProt P32215).
T1 construct: SHSY-5Y (human neuroblastoma cell line) and RG-2 (rat glioma cell line) cells endogenously express human and rat PAC1 receptors, respectively; endogenous in cells; host or cells: RG-2 rat glioma cells
T1 sequence (P32215 20-523): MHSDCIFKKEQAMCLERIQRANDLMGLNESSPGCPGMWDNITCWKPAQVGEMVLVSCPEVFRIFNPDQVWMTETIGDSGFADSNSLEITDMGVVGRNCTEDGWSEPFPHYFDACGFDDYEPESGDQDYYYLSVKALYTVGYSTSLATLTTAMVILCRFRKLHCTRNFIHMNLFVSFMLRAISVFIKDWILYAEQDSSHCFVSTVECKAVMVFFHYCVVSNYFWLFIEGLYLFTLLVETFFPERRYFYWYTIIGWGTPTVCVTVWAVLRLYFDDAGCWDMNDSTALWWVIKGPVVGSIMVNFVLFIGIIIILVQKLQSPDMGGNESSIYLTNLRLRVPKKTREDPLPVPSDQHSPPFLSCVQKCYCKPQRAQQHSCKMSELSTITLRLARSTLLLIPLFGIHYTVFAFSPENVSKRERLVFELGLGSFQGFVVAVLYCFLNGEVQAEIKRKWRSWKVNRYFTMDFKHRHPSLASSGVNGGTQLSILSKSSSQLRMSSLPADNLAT
Put plainly: LANCE Ultra cAMP accumulation antagonist assay in RG-2 cells.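 Further: RG-2 rat glioma cells endogenously expressing PAC1, test peptide preincubated 30 min, then PAC1 agonist added at its EC80 for 15 min, cAMP accumulation read by LANCE Ultra.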 It is filed as cell-based.
Method: (§1) In order to determine the potency of peptide antagonists at the PAC1 receptor, functional cAMP accumulation assays using LANCE Ultra cAMP assay kit to measure the agonist and antagonist activity of PAC1 peptides were used. SHSY-5Y (human neuroblastoma cell line) and RG-2 (rat glioma cell line) cells endogenously express human and rat PAC1 receptors, respectively. Agonist activity of PAC1 peptides was tested by incubating with SHSY-5Y at 2,000 cells per well or RG-2 at 5,000 cells per well for 15 minutes at room temperature. PAC1 receptor agonist PACAP38 or maxadilan was included as a positive control. The reaction was stopped by adding detection mixture, europium (Eu) chelate-labeled cAMP tracer and cAMP-specific monoclonal antibodies labeled with the ULight™ dye, to all wells followed by a 60-minute incubation at room temperature. The assay plates were then read on an EnVision instrument at an emission wavelength of 665 and 615 nm and data were analyzed using Genedata Screener or GraphPad Prism software. A similar procedure was used in the antagonist assays by using a fixed concentration of PAC1 agonist. The concentrations of agonists were chosen based on their ECK) values at PAC1 receptors in SHSY-5Y or RG-2 cells. SHSY-5Y or RG-2 cells were added into 96-well half-area white plates. Serially diluted PAC1 peptides at ten concentrations were added and incubated for 30 minutes at room temperature. PAC1 agonist at EC80 concentration was then added and further incubated for 15 minutes at room temperature. The reaction was stopped by adding detection mixture to all wells followed by a 60-minute incubation at room temperature. The assay plates were read and analyzed the same way as that of agonist assay. Cells, agonists, and PAC1 peptides were prepared in freshly made assay buffer (F-12, 0.5 mM IBMX, 0.1 or 0.4% BSA (pH 7.4)). Detection mixture was made by mixing a 1/50 dilution of the Eu-cAMP tracer stock solution in cAMP Detection Buffer and a 1/150 dilution of the ULight-anti-cAMP stock solution in cAMP Detection Buffer. Europium (Eu) chelate-labeled cAMP tracer, cAMP-specific monoclonal antibodies labeled with the ULight™ dye, BSA, and detection buffer were provided in LANCE Ultra cAMP Kit from PerkinElmer

Assay [2] has as its target T2, human PAC1 receptor (Homo sapiens, UniProt P41586).
T2 construct: SHSY-5Y (human neuroblastoma cell line) and RG-2 (rat glioma cell line) cells endogenously express human and rat PAC1 receptors, respectively; endogenous in cells; host or cells: SHSY-5Y human neuroblastoma cells
T2 sequence (P41586 21-468): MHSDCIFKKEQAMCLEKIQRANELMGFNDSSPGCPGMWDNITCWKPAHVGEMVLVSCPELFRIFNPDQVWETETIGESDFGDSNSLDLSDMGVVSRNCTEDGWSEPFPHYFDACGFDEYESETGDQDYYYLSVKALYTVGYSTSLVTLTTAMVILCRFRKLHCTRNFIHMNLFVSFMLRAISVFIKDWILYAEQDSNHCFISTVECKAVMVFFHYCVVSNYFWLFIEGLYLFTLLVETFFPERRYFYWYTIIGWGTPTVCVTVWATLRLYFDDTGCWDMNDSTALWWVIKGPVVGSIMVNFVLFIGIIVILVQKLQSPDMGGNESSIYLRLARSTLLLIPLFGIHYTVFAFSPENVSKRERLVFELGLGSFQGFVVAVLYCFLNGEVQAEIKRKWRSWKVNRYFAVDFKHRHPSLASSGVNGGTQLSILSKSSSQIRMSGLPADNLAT
Briefly: LANCE Ultra cAMP accumulation antagonist assay in SHSY-5Y cells.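 Further: inhibition of cAMP accumulation evoked by PAC1 agonist at its EC80 in SHSY-5Y cells endogenously expressing receptor, 30 min preincubation then 15 min agonist, TR-FRET readout.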 It is filed as cell-based.
Method: as §1

In general, IC50 refers to the point on the concentration scale where inhibition reaches its midpoint. As to `CC[C@H](C)[C@H](NC(=O)[C@H](C)NC(=O)[C@H](CCCCN)NC(=O)[C@H](CCCNC(=N)N)NC(=O)[C@H](Cc1ccccc1)NC(=O)[C@H](CCC(N)=O)NC(=O)[C@@H]1CSSC[C@H](N)C(=O)N[C@@H](CC(=O)O)C(=O)N[C@@H](C)C(=O)N[C@@H]([C@@H](C)O)C(=O)N1)C(=O)N[C@@H](CC(=O)O)C(=O)N[C@@H](CC(=O)O)C(=O)N[C@H]1CSSC[C@@H](C(=O)N[C@@H](CCSC)C(=O)N[C@@H](CCCCN)C(=O)N[C@@H](CCC(N)=O)C(=O)N[C@@H](CCCCN)C(=O)N[C@@H](CCCCN)C(=O)N[C@@H](CCCCN)C(=O)N[C@@H](CCC(=O)O)C(=O)N[C@@H](Cc2ccccc2)C(=O)N[C@@H](CCCCN)C(N)=O)NC(=O)[C@H](CCC(=O)O)NC(=O)[C@H](CCCCN)NC(=O)[C@H](Cc2ccccc2)NC(=O)[C@H](C(C)C)NC(=O)[C@H](CO)NC(=O)[C@H](CO)NC(=O)[C@H](Cc2c[nH]cn2)NC(=O)[C@H](Cc2c[nH]cn2)NC(=O)[C@H](C)NC(=O)[C@H](CCC(N)=O)NC(=O)[C@H](CCCCN)NC(=O)[C@H](CC(=O)O)NC1=O` [compound 223], the IC50 in assay [1] was 1 to 100 nM; in assay [2], under 0.01 nM.
For the compound `CC[C@H](C)[C@H](NC(=O)[C@H](C)NC(=O)[C@H](CCCCN)NC(=O)[C@H](CCCNC(=N)N)NC(=O)[C@H](Cc1ccccc1)NC(=O)[C@H](CCC(N)=O)NC(=O)[C@@H]1CSSC[C@H](N)C(=O)N[C@@H](CC(=O)O)C(=O)N[C@@H](C)C(=O)N[C@@H]([C@@H](C)O)C(=O)N1)C(=O)N[C@@H](CC(=O)O)C(=O)N[C@@H](CC(=O)O)C(=O)N[C@H]1CSSC[C@@H](C(=O)N[C@@H](CCSC)C(=O)N[C@@H](CCCCN)C(=O)N[C@@H](CCC(N)=O)C(=O)N[C@@H](CCCCN)C(=O)N[C@@H](CCCCN)C(=O)N[C@@H](CCCCN)C(=O)N[C@@H](CCC(=O)O)C(=O)N[C@@H](Cc2ccccc2)C(=O)N[C@@H](CCCCN)C(=O)N[C@@H](C)C(=O)NCC(=O)N[C@@H](Cc2ccc(O)cc2)C(=O)O)NC(=O)[C@H](C)NC(=O)[C@H](CCCCN)NC(=O)[C@H](Cc2ccccc2)NC(=O)[C@H](C(C)C)NC(=O)[C@H](CO)NC(=O)[C@H](CO)NC(=O)[C@H](Cc2c[nH]cn2)NC(=O)[C@H](Cc2ccc(O)cc2)NC(=O)[C@H](C)NC(=O)[C@H](CCC(N)=O)NC(=O)[C@H](CCCCN)NC(=O)[C@H](C)NC1=O` [compound 30] (H-CDATCQFRKAIDDCAKQAYHSSVFKACMKQKKKEFKAGY-OH; disulfide 1-5, 14-27), the IC50 in assay [1] and in assay [2] was 0.01 to 1 nM in each case.
With `CSCC[C@H](NC(=O)[C@@H]1CSSC[C@H](NC(=O)[C@H](C)NC(=O)[C@@H](NC(=O)[C@H](CC(C)C)NC(=O)CNC(=O)[C@H](CCCCN)NC(=O)[C@H](CCCNC(=N)N)NC(=O)[C@H](Cc2ccc(O)cc2)NC(=O)[C@H](CCC(N)=O)NC(=O)[C@@H]2CSSC[C@H](N)C(=O)N[C@@H](CC(=O)O)C(=O)N[C@@H](C)C(=O)N[C@@H]([C@@H](C)O)C(=O)N2)C(C)C)C(=O)N[C@@H](C)C(=O)N[C@@H](CCCNC(=N)N)C(=O)N[C@@H](CCC(N)=O)C(=O)N[C@@H](C)C(=O)N[C@@H](Cc2ccc(O)cc2)C(=O)N[C@@H](Cc2c[nH]cn2)C(=O)N[C@@H](CO)C(=O)N[C@@H](CO)C(=O)N[C@@H](C(C)C)C(=O)N[C@@H](Cc2ccccc2)C(=O)N[C@@H](CCCCN)C(=O)N[C@@H](C)C(=O)N1)C(=O)N[C@@H](CCCCN)C(=O)N[C@@H](CCC(N)=O)C(=O)N[C@@H](CCCCN)C(=O)N[C@@H](CCCCN)C(=O)N[C@@H](CCCCN)C(=O)N[C@@H](CCC(=O)O)C(=O)N[C@@H](Cc1c[nH]c2ccccc12)C(N)=O` [compound 5] (H-CDATCQYRKGLVACARQAYHSSVFKACMKQKKKEW-NH2; disulfide 1-5, 14-27), the IC50 in assay [1] and in assay [2] was 1 to 100 nM each time.
On to `CC[C@H](C)[C@H](NC(=O)[C@H](C)NC(=O)[C@H](CCCCN)NC(=O)[C@H](CCCNC(=N)N)NC(=O)[C@H](Cc1ccccc1)NC(=O)[C@H](CCC(N)=O)NC(=O)[C@@H]1CSSC[C@H](N)C(=O)N[C@@H](CC(=O)O)C(=O)N[C@@H](C)C(=O)N[C@@H]([C@@H](C)O)C(=O)N1)C(=O)N[C@@H](CC(=O)O)C(=O)N[C@@H](CC(=O)O)C(=O)N[C@H]1CSSC[C@@H](C(=O)N[C@@H](CCSC)C(=O)N[C@@H](CCCCN)C(=O)N[C@@H](CCC(N)=O)C(=O)N[C@@H](CCCCN)C(=O)N[C@@H](CCCCN)C(=O)N[C@@H](CCCCN)C(=O)N[C@@H](CCC(=O)O)C(=O)N[C@@H](Cc2ccccc2)C(=O)N[C@@H](CCCCN)C(=O)N[C@@H](C)C(=O)NCC(=O)N[C@@H](Cc2c[nH]cn2)C(=O)O)NC(=O)[C@H](C)NC(=O)[C@H](CCCCN)NC(=O)[C@H](Cc2ccccc2)NC(=O)[C@H](C(C)C)NC(=O)[C@H](CO)NC(=O)[C@H](CO)NC(=O)[C@H](Cc2c[nH]cn2)NC(=O)[C@H](Cc2c[nH]cn2)NC(=O)[C@H](C)NC(=O)[C@H](CCC(N)=O)NC(=O)[C@H](CCCNC(=N)N)NC(=O)[C@H](C)NC1=O` [compound 36] (H-CDATCQFRKAIDDCARQAHHSSVFKACMKQKKKEFKAGH-OH; disulfide 1-5, 14-27), for which the IC50 in assay [1] and in assay [2] was 0.01 to 1 nM each time.
For “CDATCHFRKAIDDCYYRSWHSNVPGSVFKACMKQHKKRWRAG-NH2 (disulfide 1-5, 14-31) [compound 71]”, the IC50 in assay [1] and in assay [2] was 0.01 to 1 nM each time.
Regarding “CDATCQFRKAIDDCQKQAHHSNVPGSVFKACMKQKKKEFKAH (disulfide 1-5, 14-31) [compound 153]”, the figures for the IC50 in assay [1] and in assay [2] were 0.01 to 1 nM and 1 to 100 nM, respectively.
“SDATSQYRKGLVACLYKKVAMQKRYSVFKACMKQKKKEWKAG-NH2 (disulfide 14-31) [compound 426]”: the IC50 in assay [1] was in the range of 0.01 to 1 nM; in assay [2], 1 to 100 nM.
With `CC[C@H](C)[C@H](NC(=O)[C@H](C)NC(=O)[C@H](CCCCN)NC(=O)[C@H](CCCNC(=N)N)NC(=O)[C@H](Cc1ccccc1)NC(=O)[C@H](CCC(N)=O)NC(=O)[C@@H]1CSSC[C@H](N)C(=O)N[C@@H](CC(=O)O)C(=O)N[C@@H](C)C(=O)N[C@@H]([C@@H](C)O)C(=O)N1)C(=O)N[C@@H](CC(=O)O)C(=O)N[C@@H](CC(=O)O)C(=O)N[C@H]1CSSC[C@@H](C(=O)N[C@@H](CCSC)C(=O)N[C@@H](CCCCN)C(=O)N[C@@H](CCC(N)=O)C(=O)N[C@@H](CCCCN)C(=O)N[C@@H](CCCCN)C(=O)N[C@@H](CCCCN)C(=O)N[C@@H](CCC(=O)O)C(=O)N[C@@H](Cc2c[nH]c3ccccc23)C(=O)N[C@@H](CCCCN)C(=O)N[C@@H](C)C(=O)NCC(N)=O)NC(=O)[C@H](C)NC(=O)[C@H](CCCCN)NC(=O)[C@H](Cc2ccccc2)NC(=O)[C@H](C(C)C)NC(=O)[C@H](CO)NC(=O)[C@H](CO)NC(=O)[C@H](Cc2c[nH]cn2)NC(=O)[C@H](Cc2c[nH]c3ccccc23)NC(=O)[C@H](CO)NC(=O)[C@H](CCCNC(=N)N)NC(=O)[C@H](Cc2ccc(O)cc2)NC(=O)[C@H](Cc2ccc(O)cc2)NC1=O` [compound 61] (H-CDATCQFRKAIDDCYYRSWHSSVFKACMKQKKKEWKAG-NH2; disulfide 1-5, 14-27), the half-maximal inhibitory concentration (IC50) in assay [1] and in assay [2] was 0.01 to 1 nM throughout.
On to “CDATCQFRKAIDDCAKQAHHSNVPGSVFKLCMKQKKKEFKAG-NH2 (disulfide 1-5, 14-31) [compound 18]”, for which the IC50 in assay [1] is under 0.01 nM; in assay [2], 0.01 to 1 nM.
